Test results reported in publication PMC8347092, “Betulin, a Newly Characterized Compound in Acacia auriculiformis Bark, Is a Multi-Target Protein Kinase Inhibitor” (Molecules, 2021).
“And” between values parts separate entries of the source, which are not always exact repeats. Identical values can stand only once. Counter-ions that a name gives are not always drawn.

Legend:
[1] = tested on: phospho-ERK1/2 (Thr202/Tyr204); assay: Immunoblot of phospho-ERK1/2 in K562S cells; type: cell-based, human; conditions: 6 h treatment, ImageJ band quantification
Protocol: The concentration of DMSO in the culture medium was 1%. Cell lysates were prepared by sonication of the cells in homogenization buffer with 0.5% of nonidet P-40 non-ionic detergent (NP-40) as described previously. SDS-PAGE and immunoblotting were performed following standard procedures. Anti-α-tubulin antibody (clone B512, T5168, 1:5000) was purchased from Sigma Aldrich (St. Louis, MO, USA). The anti-phospho-p44/42 MAPK (#28733–1-AP, 1:2000) was purchased from Proteintech® (Rosemont, IL, USA). This rabbit polyclonal antibody detects p44 and p42 MAPK when doubly phosphorylated (at Thr202 and Tyr204 of p44 and at Thr185 and Tyr187 of p42 MAPK).

[2] = tested on: K562S (doxorubicin-sensitive K562) chronic myelogenous leukemia cells; assay: MTS cell viability assay, K562S cells; type: cell-based, human; conditions: for IC50: Homo sapiens, K562, 48 h exposure, n = 3
Protocol: K562 (ATCC®, CCL-243, described here as K562S to indicate sensitivity to doxorubicin), a human chronic myelogenous leukemia cell line, was obtained from American Type Culture Collection (Manassas, VA, USA). A doxorubicin-resistant cell line (K562R, also known as K562/Adr) was kindly provided by the IRSET institute (Research Institute for Environmental and Occupational Health, INSERM, University of Rennes 1, France). The cells were maintained at 37 °C and 5% CO2 in Gibco™ 1640 Roswell Park Memorial Institute (RPMI-1640) medium containing 10% fetal bovine serum (FBS) (Life Technologies^TM, Thermo Fisher Scientific, Waltham, MA, USA).
(§1) Cell viability was evaluated with the MTS (3-(4,5-dimethylthiazol-2-yl)-5-(3-carboxymethoxyphenyl)-2-(4-sulfophenyl)-2H-tetrazolium) reduction kit, (CellTiter 96 Aqueous Non-Radioactive Cell Proliferation Assay, Promega, Fitchburg, WI, USA), according to the instructions of the manufacturer. […] Further details on experimental conditions used can be found in Delehouzé et al. 2017 [47].

JAK3 = target: T1, JAK3 (Homo sapiens, UniProt P52333); assay: ADP-Glo protein kinase assay, JAK3; type: biochemical; conditions: for % of kinase activity that remained, JAK3: 10 µM ATP, normalized to DMSO control, mean n = 2
T1 sequence (P52333 1-1124): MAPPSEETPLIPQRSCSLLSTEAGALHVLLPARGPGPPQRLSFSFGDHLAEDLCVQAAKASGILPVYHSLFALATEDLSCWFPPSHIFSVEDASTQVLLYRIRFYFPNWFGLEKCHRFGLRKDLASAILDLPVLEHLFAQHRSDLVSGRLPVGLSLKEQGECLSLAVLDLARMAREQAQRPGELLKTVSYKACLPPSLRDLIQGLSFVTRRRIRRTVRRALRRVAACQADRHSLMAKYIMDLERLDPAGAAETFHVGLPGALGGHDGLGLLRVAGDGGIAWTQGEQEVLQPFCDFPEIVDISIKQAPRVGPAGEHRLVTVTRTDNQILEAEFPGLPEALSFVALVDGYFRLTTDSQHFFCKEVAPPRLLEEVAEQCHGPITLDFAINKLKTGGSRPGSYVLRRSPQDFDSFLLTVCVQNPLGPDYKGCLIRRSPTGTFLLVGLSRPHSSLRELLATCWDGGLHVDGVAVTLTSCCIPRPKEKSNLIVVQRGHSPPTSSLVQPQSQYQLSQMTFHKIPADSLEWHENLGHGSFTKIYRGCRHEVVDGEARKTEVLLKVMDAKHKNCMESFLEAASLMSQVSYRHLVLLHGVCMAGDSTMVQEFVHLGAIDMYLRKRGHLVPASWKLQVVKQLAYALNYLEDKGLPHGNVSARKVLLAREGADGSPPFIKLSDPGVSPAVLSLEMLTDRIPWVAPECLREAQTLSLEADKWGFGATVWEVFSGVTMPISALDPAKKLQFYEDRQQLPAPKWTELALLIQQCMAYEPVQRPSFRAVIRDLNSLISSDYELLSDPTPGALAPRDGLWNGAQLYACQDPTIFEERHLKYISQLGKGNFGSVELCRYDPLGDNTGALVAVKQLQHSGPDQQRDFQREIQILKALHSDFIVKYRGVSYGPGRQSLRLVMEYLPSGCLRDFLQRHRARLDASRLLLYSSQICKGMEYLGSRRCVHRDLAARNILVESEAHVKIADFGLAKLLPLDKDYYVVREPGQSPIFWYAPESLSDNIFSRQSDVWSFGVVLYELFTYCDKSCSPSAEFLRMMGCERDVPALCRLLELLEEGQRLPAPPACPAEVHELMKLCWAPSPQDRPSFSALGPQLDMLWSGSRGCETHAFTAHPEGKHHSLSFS
Protocol: (§2) Kinase enzymatic activities were assayed in 384-well plates using the ADP-Glo^TM assay kit, following the recommendations of the manufacturer (Promega, Madison, WI). Controls were performed in appropriate dilutions of dimethyl sulfoxide (DMSO). Kinase activities, measured in the presence of 10 µM ATP, are expressed as percentage of maximal activity, i.e., measured in the absence of inhibitor. In order to determine the half-maximal inhibitory concentration (IC50), the assays were performed in duplicate in the absence or presence of increasing doses of the tested compounds. Data were analyzed using GraphPad PRISM (GraphPad Software, San Diego, CA, USA) software to fit a sigmoïdal curve that allowed determination of the IC50 values. The experimental conditions used for measuring kinase activities are comprehensively described in Ibrahim et al.. Human recombinant ABL1 mutant (T315I) was purchased from Promega (Catalog # V5320) and tested following the recommendations of the manufacturer (Promega, Madison, WI, USA).

CDK5/p25 = CDK5/p25 (Homo sapiens, UniProt Q00535); assay: ADP-Glo protein kinase assay, CDK5/p25; type: biochemical; conditions: 10 µM ATP, normalized to DMSO control, mean n = 2
Protocol: as §2

VEGFR2 = VEGFR2 (Homo sapiens, UniProt P35968); assay: ADP-Glo protein kinase assay, VEGFR2; type: biochemical
Protocol: as §2

ABL1 = ABL1 (Homo sapiens, UniProt P00519); assay: ADP-Glo protein kinase assay, ABL1; type: biochemical; conditions: for % of kinase activity that remained, ABL1: 10 µM ATP, normalized to DMSO control, mean n = 2
Protocol: as §2, with “Kinase activities, measured in the presence of 10 µM ATP, are expressed as percentage of maximal activity, i.e., measured in the absence of inhibitor.” left out

[3] = cited from earlier work
CDK9/CyclinT = CDK9/CyclinT (Homo sapiens, UniProt P50750); assay: ADP-Glo protein kinase assay, CDK9/CyclinT; type: biochemical; conditions: 10 µM ATP, normalized to DMSO control, mean n = 2
Protocol: as §2

ABL1 mutant (T315I) = ABL1 mutant (T315I) (Homo sapiens, UniProt P00519, T315I); conditions: inhibitor at 1 µM; 10 µM ATP; compared with wild type ABL1
Protocol: Effect of the T315I ABL1 kinase domain mutation on the inhibition by betulin. We selected 1 µM
We measured inhibition of mutant and WT ABL1 kinase activities by betulin and by
imatinib, using the ADP-Glo luminescent assay. ATP concentration used in the kinase assays was 10 µM.
Data are mean (N=3, n=3) ± SEM expressed as % of residual kinase activity, normalized to the DMSO control.

CK1ε = CK1ε (Homo sapiens, UniProt P49674); assay: ADP-Glo protein kinase assay, CK1ε; type: biochemical; conditions: for % of kinase activity that remained, CK1ε: 10 µM ATP, normalized to DMSO control, mean n = 2
Protocol: as §2

[4] = tested on: K562R (doxorubicin-resistant K562) chronic myelogenous leukemia cells; assay: MTS cell viability assay, K562R cells; type: cell-based; conditions: Homo sapiens, K-562R, 48 h exposure, n = 3
Pim1 = Pim1 (Homo sapiens, UniProt P11309); assay: ADP-Glo protein kinase assay, Pim1; type: biochemical; conditions: for % of kinase activity that remained, Pim1: 10 µM ATP, normalized to DMSO control, mean n = 2
Protocol: as §2

GSK-3β = GSK-3β (Homo sapiens, UniProt P49841); assay: ADP-Glo protein kinase assay, GSK-3β; type: biochemical; conditions: for % of kinase activity that remained, GSK-3β: 10 µM ATP, normalized to DMSO control, mean n = 2
Protocol: as §2

NEK6 = NEK6 (Homo sapiens, UniProt Q9HC98); assay: ADP-Glo protein kinase assay, NEK6; type: biochemical
Protocol: as §2

[5] = tested on: human peripheral blood lymphocytes (hPBLs); assay: MTS cell viability assay, human peripheral blood lymphocytes; type: cell-based; conditions: betulin ≤ 100 µM, 48 h, four healthy donors
Protocol: Peripheral blood mononuclear cells (PBMCs) were isolated by Ficoll gradient centrifugation from blood buffy coats of healthy donors, provided by the Etablissement Français du Sang (EFS). The research protocol was conducted under French legal guidelines. After separation of monocytes by 1 h adhesion step, non-adherent PBMCs (peripheral blood lymphocytes, PBL) were harvested. PBL were cultured in RPMI 1640 medium (Gibco, Life technologies, Carlsbad, CA, USA) supplemented with 10% decomplemented fetal bovine serum (CVFSVF00–01, Eurobio), penicillin (100 IU/mL), and streptomycin (100 μg/mL) (15140–122, Gibco). All cells were cultured at 37 °C with 5% CO2.
as §1

[6] = ref ChemSpider database, Royal Society of Chemistry; cited from earlier work
GSK-3α = GSK-3α (Homo sapiens, UniProt P49840); assay: ADP-Glo protein kinase assay, GSK-3α; type: biochemical
Protocol: as §2

Haspin = target: T2, Haspin (Homo sapiens, UniProt Q8TF76); assay: ADP-Glo protein kinase assay, Haspin; type: biochemical; conditions: 10 µM ATP, normalized to DMSO control, mean n = 2
T2 sequence (Q8TF76 1-798): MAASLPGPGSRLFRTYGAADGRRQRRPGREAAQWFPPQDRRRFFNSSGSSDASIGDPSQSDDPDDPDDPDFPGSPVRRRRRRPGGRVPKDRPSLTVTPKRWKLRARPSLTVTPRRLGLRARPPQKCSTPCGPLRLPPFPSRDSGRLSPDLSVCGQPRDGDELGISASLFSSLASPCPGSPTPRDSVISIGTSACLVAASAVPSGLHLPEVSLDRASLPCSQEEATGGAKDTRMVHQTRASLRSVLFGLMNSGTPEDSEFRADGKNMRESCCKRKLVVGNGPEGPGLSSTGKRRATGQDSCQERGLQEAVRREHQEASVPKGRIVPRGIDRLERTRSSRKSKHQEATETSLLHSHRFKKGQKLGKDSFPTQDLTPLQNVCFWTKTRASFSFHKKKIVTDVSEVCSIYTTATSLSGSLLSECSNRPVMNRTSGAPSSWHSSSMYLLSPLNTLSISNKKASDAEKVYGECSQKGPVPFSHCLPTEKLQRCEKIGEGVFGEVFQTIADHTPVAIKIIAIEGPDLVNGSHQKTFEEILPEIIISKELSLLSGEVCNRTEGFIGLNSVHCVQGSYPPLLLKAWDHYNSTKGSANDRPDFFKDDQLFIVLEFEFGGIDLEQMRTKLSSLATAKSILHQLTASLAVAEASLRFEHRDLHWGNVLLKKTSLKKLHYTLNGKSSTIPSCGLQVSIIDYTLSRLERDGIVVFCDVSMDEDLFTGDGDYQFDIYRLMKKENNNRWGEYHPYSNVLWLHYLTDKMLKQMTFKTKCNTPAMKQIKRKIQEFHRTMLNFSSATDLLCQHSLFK
Protocol: as §2

[7] = betulin purified from Acacia auriculiformis at 1 µg/mL
[8] = betulin purified from Acacia auriculiformis at 10 µg/mL

GSK-3β, sequence (P49841 whole entry): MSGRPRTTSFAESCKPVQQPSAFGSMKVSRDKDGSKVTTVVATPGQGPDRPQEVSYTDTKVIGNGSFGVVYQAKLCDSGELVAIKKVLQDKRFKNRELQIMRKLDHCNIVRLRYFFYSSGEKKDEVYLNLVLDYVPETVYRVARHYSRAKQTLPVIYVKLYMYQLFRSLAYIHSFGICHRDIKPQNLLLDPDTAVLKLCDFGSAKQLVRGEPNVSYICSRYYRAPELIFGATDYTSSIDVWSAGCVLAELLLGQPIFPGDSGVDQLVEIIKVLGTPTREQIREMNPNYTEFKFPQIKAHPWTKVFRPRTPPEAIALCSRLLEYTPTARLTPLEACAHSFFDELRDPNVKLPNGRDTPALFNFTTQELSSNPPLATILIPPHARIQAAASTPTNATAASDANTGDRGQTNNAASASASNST
Pim1, sequence (P11309 whole entry): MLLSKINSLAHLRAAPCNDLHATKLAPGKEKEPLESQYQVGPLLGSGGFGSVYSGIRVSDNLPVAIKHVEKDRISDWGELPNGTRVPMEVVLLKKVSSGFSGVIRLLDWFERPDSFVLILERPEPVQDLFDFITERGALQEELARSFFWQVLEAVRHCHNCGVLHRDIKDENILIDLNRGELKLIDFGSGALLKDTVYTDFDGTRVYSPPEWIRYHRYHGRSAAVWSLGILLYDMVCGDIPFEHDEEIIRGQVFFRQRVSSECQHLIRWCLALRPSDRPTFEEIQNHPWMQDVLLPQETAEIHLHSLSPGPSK
CK1ε, sequence (P49674 whole entry): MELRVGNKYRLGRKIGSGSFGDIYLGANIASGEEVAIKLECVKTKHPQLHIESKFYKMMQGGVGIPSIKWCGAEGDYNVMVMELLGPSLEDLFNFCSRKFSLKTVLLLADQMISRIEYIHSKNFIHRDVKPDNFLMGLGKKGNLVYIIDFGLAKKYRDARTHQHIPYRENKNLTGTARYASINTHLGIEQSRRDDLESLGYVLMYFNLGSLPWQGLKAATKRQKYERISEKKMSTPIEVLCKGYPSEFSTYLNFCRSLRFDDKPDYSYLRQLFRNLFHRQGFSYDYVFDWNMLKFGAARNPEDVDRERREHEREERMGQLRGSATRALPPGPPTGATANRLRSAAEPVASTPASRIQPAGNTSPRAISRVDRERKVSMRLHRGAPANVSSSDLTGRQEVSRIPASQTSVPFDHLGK
CDK9/CyclinT, sequence (P50750 whole entry): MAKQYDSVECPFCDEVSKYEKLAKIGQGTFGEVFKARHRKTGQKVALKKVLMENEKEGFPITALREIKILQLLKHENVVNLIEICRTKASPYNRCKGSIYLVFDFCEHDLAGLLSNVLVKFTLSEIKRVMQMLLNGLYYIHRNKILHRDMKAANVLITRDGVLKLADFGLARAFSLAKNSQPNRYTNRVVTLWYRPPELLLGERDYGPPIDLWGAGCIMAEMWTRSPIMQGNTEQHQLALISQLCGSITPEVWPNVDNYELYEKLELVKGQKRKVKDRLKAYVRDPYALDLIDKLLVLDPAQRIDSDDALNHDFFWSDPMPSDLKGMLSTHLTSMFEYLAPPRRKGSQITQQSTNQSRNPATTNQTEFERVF
CDK9/CyclinT, sequence (O60563 whole entry partner): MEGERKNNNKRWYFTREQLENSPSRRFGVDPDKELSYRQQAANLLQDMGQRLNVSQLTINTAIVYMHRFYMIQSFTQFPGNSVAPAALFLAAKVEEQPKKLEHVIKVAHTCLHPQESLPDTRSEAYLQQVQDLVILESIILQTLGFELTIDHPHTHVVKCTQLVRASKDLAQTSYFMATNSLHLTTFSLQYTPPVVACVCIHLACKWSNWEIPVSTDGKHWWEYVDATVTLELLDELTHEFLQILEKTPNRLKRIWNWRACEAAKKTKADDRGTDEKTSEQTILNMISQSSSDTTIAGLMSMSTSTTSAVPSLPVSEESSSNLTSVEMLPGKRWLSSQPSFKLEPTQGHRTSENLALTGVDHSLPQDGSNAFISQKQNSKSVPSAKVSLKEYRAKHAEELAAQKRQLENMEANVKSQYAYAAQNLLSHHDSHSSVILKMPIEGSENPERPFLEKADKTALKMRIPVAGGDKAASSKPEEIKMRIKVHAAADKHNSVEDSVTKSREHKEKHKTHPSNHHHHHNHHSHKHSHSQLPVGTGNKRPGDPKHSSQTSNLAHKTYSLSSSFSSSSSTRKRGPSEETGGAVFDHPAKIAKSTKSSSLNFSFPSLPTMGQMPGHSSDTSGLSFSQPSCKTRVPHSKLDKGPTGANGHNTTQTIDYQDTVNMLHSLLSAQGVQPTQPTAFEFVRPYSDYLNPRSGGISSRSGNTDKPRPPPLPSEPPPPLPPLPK
CDK5/p25, sequence (Q00535 whole entry): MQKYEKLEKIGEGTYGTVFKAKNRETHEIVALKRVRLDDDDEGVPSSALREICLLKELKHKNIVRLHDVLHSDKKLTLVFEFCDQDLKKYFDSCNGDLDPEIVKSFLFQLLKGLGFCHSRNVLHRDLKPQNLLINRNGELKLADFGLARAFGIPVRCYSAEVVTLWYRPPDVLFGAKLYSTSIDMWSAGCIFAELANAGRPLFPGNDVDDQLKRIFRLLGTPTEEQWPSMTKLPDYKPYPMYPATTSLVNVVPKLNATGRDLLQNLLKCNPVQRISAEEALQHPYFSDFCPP
CDK5/p25, sequence (Q15078 99-307 partner limits assumed): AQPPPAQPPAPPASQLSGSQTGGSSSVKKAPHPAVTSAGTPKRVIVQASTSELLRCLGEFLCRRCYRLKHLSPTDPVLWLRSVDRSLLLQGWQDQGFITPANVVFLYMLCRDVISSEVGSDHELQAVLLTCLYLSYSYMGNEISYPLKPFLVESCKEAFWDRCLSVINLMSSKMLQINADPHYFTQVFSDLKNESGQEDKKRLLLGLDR
GSK-3α, sequence (P49840 whole entry): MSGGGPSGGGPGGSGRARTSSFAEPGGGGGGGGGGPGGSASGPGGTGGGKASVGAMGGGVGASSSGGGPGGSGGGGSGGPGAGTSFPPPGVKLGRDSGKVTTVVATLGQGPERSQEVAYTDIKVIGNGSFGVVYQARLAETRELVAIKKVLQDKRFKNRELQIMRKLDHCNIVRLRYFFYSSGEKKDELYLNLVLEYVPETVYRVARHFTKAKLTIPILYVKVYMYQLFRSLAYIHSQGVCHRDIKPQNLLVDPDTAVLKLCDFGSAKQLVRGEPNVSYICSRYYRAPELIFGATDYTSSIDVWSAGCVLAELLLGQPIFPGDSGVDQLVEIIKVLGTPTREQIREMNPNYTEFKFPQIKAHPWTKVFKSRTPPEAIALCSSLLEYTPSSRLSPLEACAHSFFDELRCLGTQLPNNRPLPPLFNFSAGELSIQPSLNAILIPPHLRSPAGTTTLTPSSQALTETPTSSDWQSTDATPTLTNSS
NEK6, sequence (Q9HC98 whole entry): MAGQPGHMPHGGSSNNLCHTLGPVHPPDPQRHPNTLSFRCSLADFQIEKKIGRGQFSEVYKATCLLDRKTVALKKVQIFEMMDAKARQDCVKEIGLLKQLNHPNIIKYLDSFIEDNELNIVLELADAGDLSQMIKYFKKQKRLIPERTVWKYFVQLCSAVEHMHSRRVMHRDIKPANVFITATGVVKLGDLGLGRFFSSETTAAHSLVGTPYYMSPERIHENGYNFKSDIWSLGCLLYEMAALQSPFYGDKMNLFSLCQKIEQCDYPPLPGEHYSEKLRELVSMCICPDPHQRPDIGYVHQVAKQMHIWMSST
VEGFR2, sequence (P35968 20-1356): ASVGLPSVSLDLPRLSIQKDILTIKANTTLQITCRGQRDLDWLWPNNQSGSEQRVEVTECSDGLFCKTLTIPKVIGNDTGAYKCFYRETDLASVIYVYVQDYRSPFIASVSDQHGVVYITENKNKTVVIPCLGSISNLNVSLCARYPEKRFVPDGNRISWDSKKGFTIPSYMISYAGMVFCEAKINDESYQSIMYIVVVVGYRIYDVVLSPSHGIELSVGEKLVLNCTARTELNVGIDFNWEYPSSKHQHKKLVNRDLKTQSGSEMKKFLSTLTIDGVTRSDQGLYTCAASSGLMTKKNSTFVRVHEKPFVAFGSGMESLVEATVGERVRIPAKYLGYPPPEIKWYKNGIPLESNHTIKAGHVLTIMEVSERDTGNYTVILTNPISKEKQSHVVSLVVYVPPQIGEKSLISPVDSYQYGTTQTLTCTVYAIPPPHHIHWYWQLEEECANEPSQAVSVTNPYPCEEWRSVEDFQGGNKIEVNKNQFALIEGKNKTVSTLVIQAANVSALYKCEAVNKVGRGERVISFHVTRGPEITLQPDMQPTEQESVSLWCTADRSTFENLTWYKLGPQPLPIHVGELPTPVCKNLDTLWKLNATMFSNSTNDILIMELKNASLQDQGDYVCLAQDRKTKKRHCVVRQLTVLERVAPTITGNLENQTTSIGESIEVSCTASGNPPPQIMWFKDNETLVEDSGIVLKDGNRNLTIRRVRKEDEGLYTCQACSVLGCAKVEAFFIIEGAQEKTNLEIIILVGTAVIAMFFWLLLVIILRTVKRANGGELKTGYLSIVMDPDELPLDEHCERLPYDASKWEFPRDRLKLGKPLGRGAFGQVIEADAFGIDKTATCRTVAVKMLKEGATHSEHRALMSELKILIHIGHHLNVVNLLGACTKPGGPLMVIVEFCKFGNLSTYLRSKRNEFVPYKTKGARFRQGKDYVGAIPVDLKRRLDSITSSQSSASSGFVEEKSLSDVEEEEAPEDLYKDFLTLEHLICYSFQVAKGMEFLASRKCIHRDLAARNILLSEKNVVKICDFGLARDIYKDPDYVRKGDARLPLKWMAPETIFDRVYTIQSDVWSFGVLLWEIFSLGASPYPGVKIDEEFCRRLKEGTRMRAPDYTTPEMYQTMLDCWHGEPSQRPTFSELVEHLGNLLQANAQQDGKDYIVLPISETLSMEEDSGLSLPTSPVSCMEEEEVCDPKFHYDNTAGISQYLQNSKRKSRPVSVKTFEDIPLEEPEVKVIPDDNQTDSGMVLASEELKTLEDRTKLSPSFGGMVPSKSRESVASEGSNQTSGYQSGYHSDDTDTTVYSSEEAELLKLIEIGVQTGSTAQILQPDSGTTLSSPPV

Cc1ccc(NC(=O)c2ccc(CN3CCN(C)CC3)cc2)cc1Nc1nccc(-c2cccnc2)n1 [imatinib mesylate, reference compound]
%pERK/Tubulin ([1]; 20 µM): 1.5%

COc1cccc2c1C(=O)c1c(O)c3c(c(O)c1C2=O)C[C@@](O)(C(=O)CO)C[C@@H]3O[C@H]1C[C@H](N)[C@H](O)[C@H](C)O1 [Doxorubicin, reference compound]
IC50 [2]: 0.59 µM

C=C(C)[C@@H]1CC[C@]2(CO)CC[C@]3(C)[C@H](CC[C@@H]4[C@@]5(C)CC[C@H](O)C(C)(C)[C@@H]5CC[C@]43C)[C@@H]12 [Betulin, 3-lup-20(29)-ene-3β,28-diol]
IC50 (JAK3): 1080 nM | % of kinase activity that remained, JAK3 (JAK3; [7]): 28% | % of kinase activity that remained, JAK3 (JAK3; [8]): 25% | % of kinase activity that remained, CDK5/p25 (CDK5/p25; [7]): 94% | % of kinase activity that remained, CDK5/p25 (CDK5/p25; [8]): 99% | IC50 (VEGFR2): 2450 nM | IC50 (ABL1): 930 nM | inhibition of the ABL1 activity in ATP competition assay (ABL1; 10 µM betulin, 100 µM ATP compared with 10 µM ATP): significantly decreased | % of kinase activity that remained, ABL1 (ABL1; [7]): 36% | % of kinase activity that remained, ABL1 (ABL1; [8]): 21% | inhibition at 10 µg/mL (ABL1; read-out: inhibition of kinase activity, ABL1): 79% | %pERK/Tubulin ([1]; 50 µM): 71.3% | %pERK/Tubulin ([1]; 100 µM): 48.3% | solubility in water [3]: 0.08 μg/mL and 0.18 µM | % of kinase activity that remained, CDK9/CyclinT (CDK9/CyclinT; [7]): 88% | % of kinase activity that remained, CDK9/CyclinT (CDK9/CyclinT; [8]): 60% | inhibition of the enzymatic activity of T315I mutant of ABL1 (ABL1 mutant (T315I)): retains its capacity to inhibit | IC50 (CK1ε): 2110 nM | % of kinase activity that remained, CK1ε (CK1ε; [7]): 53% | % of kinase activity that remained, CK1ε (CK1ε; [8]): 48% | IC50 [4]: 13.5 µM | % of kinase activity that remained, Pim1 (Pim1; betulin purified from Acacia auriculiformis at 1 µg/mL, ≥100 = no detectable inhibition): ≥100% | % of kinase activity that remained, Pim1 (Pim1; [8]): 90% | inhibition at 10 µg/mL (Pim1; read-out: inhibition of kinase activity, Pim1): 10% | IC50 (GSK-3β): 1060 nM | % of kinase activity that remained, GSK-3β (GSK-3β; [7]): 38% | % of kinase activity that remained, GSK-3β (GSK-3β; [8]): 30% | IC50 (NEK6): 3.02 µM | viability of hPBLs [5]: did not induce a significant decrease | predicted Octanol-Water Partition Coefficient (LogP) [6]: 9.01 | IC50 [2]: 16.5 µM | effects on K562S cell viability when cells co-treated with z-VAD-fmk ([2]; betulin 1-50 µM with 20 µM z-VAD-fmk (pan-inhibitor of caspases), 48 h): not significantly altered | IC50 (GSK-3α): 720 nM | % of kinase activity that remained, Haspin (Haspin; [7]): 72% | % of kinase activity that remained, Haspin (Haspin; [8]): 91%
